According to the supplement of paper PMC9663587:

Assays:
Experiment in all cases: GR value, 72 h; higher = faster growth (1 = untreated, <0 = killing);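 also: breast cancer and non-malignant breast epithelial lines, nine half-log doses, viable cells counted by Hoechst and LIVE/DEAD dye imaging versus time-zero plates and DMSO controls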
[1] = compound: CC(=O)O[C@H]1C(=O)[C@@]2(C)[C@H]([C@H](OC(=O)c3ccccc3)[C@]3(O)C[C@H](OC(=O)[C@H](O)[C@@H](NC(=O)c4ccccc4)c4ccccc4)C(C)=C1C3(C)C)[C@]1(OC(C)=O)CO[C@@H]1C[C@@H]2O [Paclitaxel]
[2] = compound: CCCCOc1c(C(=O)c2c(F)cc(C)cc2F)c[nH]c2nncc1-2
[3] = compound: CCNC(=O)c1noc(-c2cc(C(C)C)c(O)cc2O)c1-c1ccc(CN2CCOCC2)cc1 [Luminespib/NVP-AUY922]
[4] = compound: CN(C)C/C=C/C(=O)Nc1ccc(O[C@@H]2CCC[C@@H](Nc3ncc(Cl)c(-c4c[nH]c5ccccc45)n3)C2)cc1 [BSJ-01-175]
[5] = compound: CN1CCN(C(=O)c2ccc3cc(CCNc4ncnc5ccc(C#N)cc45)ccc3c2)CC1 [senexin b]
[6] = compound: CN1CCN(CC1)C2=CC(=C(C=C2)NC3=NC=C4C(=N3)N(C5=CC=CC=C5C(=O)N4CC(F)(F)F)C)OC [FMF-03-146-1]

AU565 was tested, and the GR value ([1]; 0.0001 µM) was 1.05 GR, the GR value ([1]; 0.0003162 µM) was 1.1 GR and the GR value ([1]; 0.001 µM) was 0.919 GR. It also gave a GR value ([1]; 0.003162 µM) of -0.244 GR, a GR value ([1]; 0.01 µM) of -0.459 GR and a GR value ([1]; 0.03162 µM) of -0.515 GR. For the same cell line, the GR value ([1]; 0.1 µM) was -0.482 GR, the GR value ([1]; 0.3162 µM) was -0.467 GR and the GR value ([1]; 1 µM) was -0.475 GR. It also gave a GR value ([2]; 0.001 µM) of 0.763 GR, a GR value ([2]; 0.003162 µM) of 0.828 GR and a GR value ([2]; 0.01 µM) of 0.656 GR. The GR value ([2]; 0.03162 µM) was 0.622 GR, the GR value ([2]; 0.1 µM) was 0.545 GR and the GR value ([2]; 0.3162 µM) was 0.489 GR. The GR value ([2]; 1 µM) was 0.372 GR, the GR value ([2]; 3.162 µM) was 0.0322 GR and the GR value ([2]; 10 µM) was -0.151 GR. It also gave a GR value ([3]; 0.0001 µM) of 0.887 GR, a GR value ([3]; 0.0003162 µM) of 0.966 GR and a GR value ([3]; 0.001 µM) of 0.942 GR. The GR value ([3]; 0.003162 µM) was 0.648 GR, the GR value ([3]; 0.01 µM) was 0.165 GR and the GR value ([3]; 0.03162 µM) was -0.079 GR. It also gave a GR value ([3]; 0.1 µM) of -0.156 GR, a GR value ([3]; 0.3162 µM) of -0.214 GR and a GR value ([3]; 1 µM) of -0.227 GR. It also gave a GR value ([4]; 0.001 µM) of 0.954 GR, a GR value ([4]; 0.003162 µM) of 0.82 GR and a GR value ([4]; 0.01 µM) of 0.24 GR. It also gave a GR value ([4]; 0.03162 µM) of -0.144 GR, a GR value ([4]; 0.1 µM) of -0.164 GR and a GR value ([4]; 0.3162 µM) of -0.381 GR. It also gave a GR value ([4]; 1 µM) of -0.45 GR, a GR value ([4]; 3.162 µM) of -0.505 GR and a GR value ([4]; 10 µM) of -0.777 GR. It also gave a GR value ([5]; 0.001 µM) of 1.02 GR, a GR value ([5]; 0.003162 µM) of 0.919 GR and a GR value ([5]; 0.01 µM) of 0.88 GR. For the same cell line, the GR value ([5]; 0.03162 µM) was 1.05 GR, the GR value ([5]; 0.1 µM) was 0.897 GR and the GR value ([5]; 0.3162 µM) was 0.904 GR. It also gave a GR value ([5]; 1 µM) of 0.786 GR, a GR value ([5]; 3.162 µM) of 0.768 GR and a GR value ([5]; 10 µM) of 0.913 GR. For the same cell line, the GR value ([6]; 0.001 µM) was 0.955 GR, the GR value ([6]; 0.003162 µM) was 1.02 GR and the GR value ([6]; 0.01 µM) was 1.03 GR. The GR value ([6]; 0.03162 µM) was 1 GR.
